In US4990613A, “(1R,5S,6S)-2-[(6,7-dih ydro-5H-pyrazolo[1,2-a][1,2,4]triazolium-6-yl)]thio-6-[R-1-hydroxyethyl]- 1-methyl-carbapenem-3-carboxylate and intermediate therefor” (Lederle (Japan), Ltd., priority 1987, dated 1991):
In brackets after ≈: the same amount, converted by molar mass. Read-outs that look alike come from different tables or passages of the source.

Tests used:
[1] = test system: Salmonella paratyphi 1015; assay: Antibacterial test, agar plate dilution method; type: cell-based; details: Salmonella enterica, PARATYPHI, 18 h
Salmonella typhi 901 = assay: Antibacterial test, agar plate dilution method; type: cell-based; details: Salmonella enterica, TYPHI, 18 h
[2] = test system: Salmonella enteritidis G14; assay: Antibacterial test, agar plate dilution method; details: Salmonella enterica, ENTERITIDIS, 18 h
[3] = test system: Providencia rettgeri IFO 3850; assay: Antibacterial test, agar plate dilution method; details: Providencia rettgeri, IFO3850, 18 h
[4] = test system: Staphylococcus aureus FDA 209P JC-1; assay: Antibacterial test, agar plate dilution method; details: Staphylococcus aureus, FDA209P, 18 h
[5] = test system: Enterobacter aerougenes ATCC13048; assay: Antibacterial test, agar plate dilution method; details: Enterobacter, ATCC13048, 18 h
[6] = test system: Streptococcus pyogenes Cook; assay: Antibacterial test, agar plate dilution method; details: Streptococcus pyogenes, 18 h
Enterobacter cloacae 963 = assay: Antibacterial test, agar plate dilution method; details: Enterobacter cloacae, 963, 18 h
[7] = test system: Escherichia coli NIHJ JC-2; assay: Antibacterial test, agar plate dilution method; details: Escherichia coli, NIHJJC2, 18 h
[8] = test system: Salmonella schottmuelleri 8006; assay: Antibacterial test, agar plate dilution method; details: Salmonella, 8006, 18 h
[9] = test system: Staphylococcus aureus Terajima; assay: Antibacterial test, agar plate dilution method; details: Staphylococcus aureus, 18 h
[10] = test system: Staphylococcus aureus MS352; assay: Antibacterial test, agar plate dilution method; details: Staphylococcus aureus, MS352, 18 h
Proteus morganii GN 5375 = assay: Antibacterial activity against clinically isolated β-lactamase producing strains; type: cell-based; details: Morganella morganii, GN5375
Method: (§1) A solution of a cephalosporinase producing strain stored by Episome Research Institute, which was prepared by incubating the strain in a sensitivity test broth (STB; product of Nissui K.K.) for 18 hours, was diluted with a fresh STB solution to contain 10^5 cells per milliliter and the diluted solution was then inoculated as spots with a microplanter on a sensitivity disk agar-N (SDA; product of Nissui K.K.) containing a test compound. The disk agar was then incubated for 18 to 20 hours. A minimum inhibitory concentration was determined as a minimum concentration in which the test microorganism had no longer grown after a 18 to 20 hour incubation.

Serratia marcescens L-82 = assay: as above; type: cell-based; details: Serratia marcescens, L82; cephalosporinase producing strain, 18 to 20 hours; read-out: MIC
Method: as §1

[11] = test system: Citrobactor freundii GN 346; assay: as above; type: cell-based; details: cephalosporinase producing strain, 18 to 20 hours; read-out: MIC
Method: as §1

Proteus vulgaris GN 7919 = assay: as above; type: cell-based; details: Proteus vulgaris, GN7919
Method: as §1

Proteus morganii GN 5407 = assay: as above; type: cell-based; details: Morganella morganii, GN5407
Method: as §1

[12] = test system: Providencia rettgeri GN 4430; assay: as above; type: cell-based; details: Providencia rettgeri, GN4430; cephalosporinase producing strain, 18 to 20 hours; read-out: MIC
Method: as §1

[13] = test system: Escherichia coli No. 1501; assay: as above; type: cell-based; details: Escherichia coli, NO.1501; cephalosporinase producing strain, 18 to 20 hours; read-out: MIC
Method: as §1

[14] = test system: Pseudomonas aeruginosa GN 10367; assay: as above; type: cell-based; details: Pseudomonas aeruginosa, GN10367
Method: as §1

[15] = test system: Pseudomonas aeruginosa GN 10362; assay: as above; type: cell-based; details: Pseudomonas aeruginosa, GN10362
Method: as §1

Proteus vulgaris GN 4413 = assay: as above; type: cell-based; details: Proteus vulgaris, GN4413
Method: as §1

Serratia marcescens L-65 = assay: as above; type: cell-based; details: Serratia marcescens, L65; cephalosporinase producing strain, 18 to 20 hours; read-out: MIC
Method: as §1

[16] = test system: Pseudomonas cepacia GN 11164; assay: as above; type: cell-based; details: Burkholderia cepacia, GN11164
Method: as §1

[17] = test system: Citrobactor freundii GN 7391; assay: as above; type: cell-based; details: cephalosporinase producing strain, 18 to 20 hours; read-out: MIC
Method: as §1

Escherichia coli GN 5482 = assay: as above; type: cell-based; details: Escherichia coli, GN5482; cephalosporinase producing strain, 18 to 20 hours; read-out: MIC
Method: as §1

Escherichia coli No. 96 = assay: as above; type: cell-based; details: Escherichia coli, NO.96; cephalosporinase producing strain, 18 to 20 hours; read-out: MIC
Method: as §1

[18] = test system: Serratia marcescens GN 10857; assay: as above; type: cell-based; details: Serratia marcescens, GN10857
Method: as §1

[19] = test system: Klebsiella oxytoca GN 10650; assay: as above; type: cell-based; details: Klebsiella oxytoca, GN10650; cephalosporinase producing strain, 18 to 20 hours; read-out: MIC
Method: as §1

Proteus morganii GN 5307 = assay: as above; type: cell-based; details: Morganella morganii, GN5307; cephalosporinase producing strain, 18 to 20 hours; read-out: MIC
Method: as §1

[20] = test system: Providencia rettgeri GN 4762; assay: as above; type: cell-based; details: Providencia rettgeri, GN4762; cephalosporinase producing strain, 18 to 20 hours; read-out: MIC
Method: as §1

[21] = test system: Salmonella typhimurium IID971; assay: Antibacterial test, agar plate dilution method; details: Salmonella enterica, 18 h
[22] = cephalosporinase producing strain, 18 to 20 hours, read-out: MIC

SMILES | MIC [1] | MIC (Salmonella typhi 901) | MIC [2] | MIC [3] | MIC [4] | MIC [5] | MIC [6] | MIC (Enterobacter cloacae 963) | MIC [7] | MIC [8] | MIC [9] | MIC [10] | MIC (Serratia marcescens L-82) | MIC [11] | MIC [12] | MIC [13] | MIC [14] | MIC (Serratia marcescens L-65) | MIC [17] | MIC (Escherichia coli GN 5482) | further results
C[C@@H](O)[C@H]1C(=O)N2C(C(=O)O)=C(SCCN=CN)C[C@H]12 [Imipenem] | 1.56 µg/mL (≈ 5.21 µM) | 0.1 µg/mL (≈ 0.334 µM) | 0.78 µg/mL (≈ 2.61 µM) | 0.78 µg/mL (≈ 2.61 µM) | 0.025 µg/mL (≈ 0.0835 µM) | 0.2 µg/mL (≈ 0.668 µM) | < 0.006 µg/mL | 0.2 µg/mL (≈ 0.668 µM) | 0.1 µg/mL (≈ 0.334 µM) | 0.78 µg/mL (≈ 2.61 µM) | < 0.006 µg/mL | 0.013 µg/mL (≈ 0.0434 µM) | 0.2 µg/mL (≈ 0.668 µM) | 0.39 µg/mL (≈ 1.3 µM) | 0.39 µg/mL (≈ 1.3 µM) | 0.1 µg/mL (≈ 0.334 µM) | 1.56 µg/mL (≈ 5.21 µM) | 0.39 µg/mL (≈ 1.3 µM) | 0.78 µg/mL (≈ 2.61 µM) | 0.1 µg/mL (≈ 0.334 µM) | MIC (Proteus morganii GN 5375): 3.13 µg/mL (≈ 10.5 µM); MIC (Proteus vulgaris GN 7919; [22]): 0.39 µg/mL (≈ 1.3 µM); MIC (Proteus morganii GN 5407): 3.13 µg/mL (≈ 10.5 µM); MIC [15, 22]: 0.78 µg/mL (≈ 2.61 µM); MIC (Proteus vulgaris GN 4413): 6.25 µg/mL (≈ 20.9 µM); MIC [16]: 3.13 µg/mL (≈ 10.5 µM); MIC (Escherichia coli No. 96): 0.1 µg/mL (≈ 0.334 µM); MIC [18]: 3.13 µg/mL (≈ 10.5 µM); MIC [19]: 0.2 µg/mL (≈ 0.668 µM); MIC (Proteus morganii GN 5307): 0.78 µg/mL (≈ 2.61 µM); MIC [20]: 0.39 µg/mL (≈ 1.3 µM); MIC [21]: 0.39 µg/mL (≈ 1.3 µM)
Cc1nnc(SCC2=C(C(=O)O)N3C(=O)[C@@H](NC(=O)Cn4cnnn4)[C@H]3SC2)s1 [CEZ] | 1.56 µg/mL (≈ 3.43 µM) | 0.78 µg/mL (≈ 1.72 µM) | 0.78 µg/mL (≈ 1.72 µM) | 12.5 µg/mL (≈ 27.5 µM) | 0.2 µg/mL (≈ 0.44 µM) | > 100 µg/mL | 0.1 µg/mL (≈ 0.22 µM) | > 100 µg/mL | 0.78 µg/mL (≈ 1.72 µM) | 0.78 µg/mL (≈ 1.72 µM) | 0.05 µg/mL (≈ 0.11 µM) | 0.1 µg/mL (≈ 0.22 µM) | 0.39 µg/mL (≈ 0.858 µM) | 25 µg/mL (≈ 55 µM) | 0.2 µg/mL (≈ 0.44 µM) | 0.2 µg/mL (≈ 0.44 µM) | 3.13 µg/mL (≈ 6.89 µM) | 0.2 µg/mL (≈ 0.44 µM) | > 100 µg/mL | 0.78 µg/mL (≈ 1.72 µM) | MIC (Proteus morganii GN 5375; [22]): 0.2 µg/mL (≈ 0.44 µM); MIC (Proteus vulgaris GN 7919): 3.13 µg/mL (≈ 6.89 µM); MIC (Proteus morganii GN 5407; [22]): 0.39 µg/mL (≈ 0.858 µM); MIC [15]: 3.13 µg/mL (≈ 6.89 µM); MIC (Proteus vulgaris GN 4413; [22]): 0.2 µg/mL (≈ 0.44 µM); MIC [16, 22]: 0.78 µg/mL (≈ 1.72 µM); MIC (Escherichia coli No. 96): 0.78 µg/mL (≈ 1.72 µM); MIC [18, 22]: 0.78 µg/mL (≈ 1.72 µM); MIC [19]: 0.2 µg/mL (≈ 0.44 µM); MIC (Proteus morganii GN 5307): 0.2 µg/mL (≈ 0.44 µM); MIC [20]: 0.78 µg/mL (≈ 1.72 µM); MIC [21]: 0.78 µg/mL (≈ 1.72 µM)
